Assay results published in patent US12440471B2, “Compositions and methods for the treatment of bronchopulmonary dysplasia (BPD) and BPD-associated pulmonary hypertension” (AyuVis Research, Inc., priority 2021, dated 2025).

Legend:
Assay type in all cases: in vivo
[1] = test system: hyperoxia-exposed BPD mouse model; experiment: BPD mouse model: flow cytometry of lung immune cell populations
Description: AVR-48 normalizes two important innate immune cell populations in animals with BPD. Based on the affinity of AVR-48 for TLR4 and the increased TLR4 expression in AVR-48 treated BPD animals, the inventors determined if there would be an impact on immune cell recruitment to the lung interstitium. Flow cytometry was performed to determine absolute numbers of key immune cell populations in the lung of neonatal mice pups from AVIS-48-treated and untreated animals in the RA and BPD groups. […] All other cell populations were similar (FIG. 11).

[2] = test system: hyperoxia-exposed BPD mouse model; experiment: BPD mouse model: BPD-PH, RV hypertrophy ratios
Source text: AVR-48 protects the lungs from progressing towards BPD-PH. BPD-PH is characterized by abnormal vascular remodeling and rarefication of the pulmonary vasculature leading to vascular growth arrest which eventually leads to increased pulmonary vascular resistance and right heart failure (Hansmann, Sallmon et al. 2021). A similar effect is also seen in mouse models of experimental BPD, as reported by the present inventors, previously (Sun, Choo-Wing et al. 2013, Sureshbabu, Syed et al. 2016, Syed, Das et al. 2017, Leary, Das et al. 2019). There is hypertrophy of the right ventricle (RV) with an increase in the thickness of interventricular septum (IVS). […] There was no change in the ratio in the RA group treated with the drug, which was similar to RA control group (FIG. 8A).
Morphometry and quantification. To study chord length, septal thickness and radial alveolar count in the lungs, RV, LV and IVS thickness, 5 μm-thick left-lobe lung and heart paraffin-embedded sections were stained with H&E. Multiple randomly chosen areas (at least 10 areas) from each section were photographed using 100× total magnification. Sections with large airways or blood vessels from the lung were excluded for lung morphometry while quantitative measurements of PH-induced RV hypertrophy ratios (RV/LV and RV/LV+IVS) were done using the methodology described previously (Sun, Choo-Wing et al. 2013). The lung morphometry parameters were measured as described (Bhandari, Choo-Wing et al. 2008, Leary, Das et al. 2019, Das, Acharya et al. 2020, Das, Curstedt et al. 2020) either using ImageJ (a free software of NIH) or CellSens software (version 7, Olympus).

[3] = test system: hyperoxia-exposed BPD mouse model; experiment: BPD mouse model: bronchoalveolar lavage fluid (BALF) analysis; conditions: vs BPD group
Source text: For the hyperoxia experiment, newborn pups were exposed to 100% hyperoxia (P0), along with their mothers, in cages in an airtight Plexiglas chamber (OxyCycler; Biospherix, Redfield, NY, USA) as described previously by the present inventors (Syed, Das et al., 2017, Leary, Das et al. 2019, Das, Acharya et al. 2020, relevant portions incorporated herein) for 4 consecutive days (till P4) and removed to RA on P5 to be recovered till P14, so as to emulate the human BPD condition. All pups were sacrificed on P14 for further experimental analyses. The pups without any hyperoxia exposure served as the corresponding RA (normoxia) controls.
Bronchoalveolar lavage fluid (BALF) Analysis. Pups were sacrificed on PN14, and the trachea was cannulated with a small-caliber needle by instilling PBS endotracheally at […] pressure for 15 minutes. Two volumes of 300 μL of cold 1×PBS were instilled, gently aspirated, and pooled. Samples were centrifuged at 1000×g for 10 minutes at 4° C. The supernatant was collected, and total protein was quantified using the Pierce™ BCA Protein Assay Kit (Fisher Scientific Co, Houston, TX). The total cell count was done using the TC20 cell counter (BioRad, Hercules, CA). Similar method was followed for analyzing the protein concentration in BAL fluid collected from preterm lambs.

[4] = AVR-48-treated RA animals vs RA animals
[5] = treated vs untreated BPD animals, similar to RA control

CC(=O)N[C@@H]1C(Oc2ccc([N+](=O)[O-])cc2)OC(CO)C(O)C1O (stereo partly shown) [AVR-48]
all other immune cell populations in the lung [1, 4]: similar | dendritic cells in the lung [1, 4]: increase | macrophages in the lung [1, 4]: slight, but statistically significant, decrease | macrophages in the lung [1, 5]: increased | neutrophils in the lung [1, 5]: decreased | Fulton's Index (RV/LV+IVS) ([2]; BPD group after treatment): decreased significantly | RV/left ventricle (LV) ratio ([2]; BPD group after treatment): decreased significantly | RV/LV ratio and Fulton's Index in room air animals ([2]; RA group treated with the drug vs RA control): no change | total protein content in BALF ([3]; 10 mg/kg IP): decreased | total inflammatory cells in BALF ([3]; 10 mg/kg): significantly decreased
